The source of these data is ChEMBL document CHEMBL3507680, “University of Dundee, Gates Library screen for HepG2 cell viability”.

Each structure is given as a SMILES string.

The data set in a line: Human HepG2 cell viability assay in 384 well format. It counts as toxicity, cell-based. Further details: dose 125 nL, time 70.5 hour; cytotoxicity at 70.5 h: concentration not given beside the values. The note with it: HepG2 cells, read-out: Inhibition.

For the compound `C1CCC(OCCN2CCN(CCOC3CCCCC3)CC2)CC1`, the cytotoxicity at 70.5 h is -5.88%.
Under `CN(Cc1ccc2c(c1)OCO2)C(=O)c1ccc(C2CCCO2)s1` (configuration not stated) stands -6.85%; under `COc1cccc(CNC2CCSC2)c1OC` (configuration not stated), -7.09%; under `CN(Cc1ccccc1CN1CCCC1)c1ncnc2[nH]ccc12`, -4.3%.
The figure for `CN1CCC(NN2CCN(C)CC2)CC1` is -17.5%; for `CC1CCC(NCCCN2CCOCC2)CC1` (configuration not stated) it is -6.93%; for `Cc1noc(CN(C)C(=O)CCn2cnc3ccccc32)n1` it is -13.9%.
`COc1ccc(CCC(C)Nc2cccc(SC)c2)cc1` (configuration not stated): the cytotoxicity at 70.5 h is 23.6%.
Consider `CCOCc1nc2c(c(NC(COC)c3ccccn3)n1)CCNCC2` (configuration not stated), for which the cytotoxicity at 70.5 h was -3.42%.
The figure for `CNC(=O)[C@@H]1C[C@@H](N)CN1Cc1ccc2cccc(OC)c2n1` is -2.31%.
Turning to `CSCC[C@@H](CO)n1ccnc1-c1ccncc1`, the cytotoxicity at 70.5 h was -10.3%.
Take `Cc1ccsc1-c1nccn1CCN1CCCOC1=O`: the cytotoxicity at 70.5 h was -9.87%.
As to `CCN1CCN(C(=O)c2ccc3c(c2)NC(=O)CN3)[C@H]2CS(=O)(=O)C[C@H]21`, the cytotoxicity at 70.5 h was -8.61%.
Under `CC(C)[C@@H]1CN(C(=O)C2(c3ccccc3)CC2)C[C@H]1C(=O)O` stands -3.69%.
The figure for `COc1ncc(CN2CCC3(CCCN(CC4CCCCC4)C3)C2)cn1` (configuration not stated) is 26.8%.
The figure for `CCNc1ncc(C(=O)NCc2cccc(OC(F)(F)F)c2)cn1` is -16.5%.
Consider `c1ccc(COCCN2CCc3[nH]cnc3C2c2ccoc2)cc1` (configuration not stated), for which the cytotoxicity at 70.5 h was determined as 26%.
Under `COc1ccc(-n2cnnc2CC2CCNCC2)cc1` stands 1.1%; under `CCN1CCc2[nH]cnc2C12CCN(c1ccc(Cl)cn1)CC2`, -4.3%.
Under `CCCN1CC2(CCN(C)CC2)CC1C(=O)NCc1cc(C)nn1C` (configuration not stated) stands -12.4%.
The figure for `CCC(=O)Nc1cccc(OCC(=O)N2CC=CC2C(C)C)c1` (configuration not stated) is -22.1%; for `Cc1nonc1CN(C)c1nc(-c2ccco2)nc2c1CCN(C)CC2` it is -8.33%.
For `Cn1nnnc1SCCNC(=O)c1c[nH]nc1C1CCCCC1`, the cytotoxicity at 70.5 h was -9.31%.
Under `O=C(CCc1nc(Cl)n[nH]1)N1C[C@@H](CN2CCCCCC2)[C@@H](CO)C1` stands -4.12%.
The figure for `CCn1ccnc1C1CCCN(C(=O)c2sc(C)nc2C)C1` (configuration not stated) is -7.2%; for `Cc1ccsc1CN(CCN(C)C)C(=O)C1=NNC(=O)CC1` it is -9.85%; for `Cc1nc(N2CCCC(C)C2)nc2cc(S(C)(=O)=O)ccc12` (configuration not stated) it is -2.18%.
The figure for `CCn1cc(C2=CCN(CCCOc3ccccc3)CC2)cn1` is 0.137%; for `CC1(C)OC(=O)N(CCOc2ccc(F)cc2)C1=O` it is -4.69%; for `Cc1cc(CN(C)C(=O)C(c2cccnc2)N2CCOCC2)n[nH]1` (configuration not stated) it is -10.1%.
On to `CC(Oc1ccc2c(c1)OCO2)C(=O)N1CCC(c2ncc[nH]2)CC1` (configuration not stated), for which the cytotoxicity at 70.5 h was -8.64%.
The figure for `O=C(NC1CCCC1)N1C[C@H]2CN(c3ccccn3)C[C@@]2(C(=O)O)C1` is 6.72%; for `Cc1nc(N(C)C)ncc1C(=O)N(Cc1ccncc1)CC1CCCO1` (configuration not stated) it is -4.9%.
Under `CCc1nnc(CN(C)Cc2cccc(C(=O)Nc3nccs3)c2)o1` stands -1.25%; under `NCC1Cc2cc(-c3nccc(N4CCC(O)CC4)n3)cc(F)c2O1` (configuration not stated), 6.33%.
As to `Cc1ccccc1CN1CCN(C(=O)CN2CCOC2=O)CC1`, the cytotoxicity at 70.5 h was -6.85%.
For the compound `Cc1nc(CN2CCC(c3nc4ccccc4n3C)CC2)co1`, the cytotoxicity at 70.5 h was -24.4%.
`CN1C(=O)[C@H]2CC[C@@H]1CN(Cc1cccc(OCc3ccccn3)c1)C2`: the cytotoxicity at 70.5 h was -11.5%.
Under `CCc1nn(C)c(Cl)c1CN1CCN(c2ccc(Cl)nn2)CC1` stands 13.1%; under `Cc1ccc(-c2cc(-c3c(C)nn(CCO)c3C)c(C#N)c(N)n2)cc1`, 0.809%; under `CC(C)CN1CC2(CCN(C(=O)C3CNC(=O)N3)CC2)CC1=O` (configuration not stated), -9.7%.
For the compound `CCc1ccc2nc(C)cc(C(=O)N3C[C@H]4CCC[C@@]4(CO)C3)c2c1`, the cytotoxicity at 70.5 h is -8.92%.
The figure for `O=C(NCC1CCS(=O)(=O)C1)c1ccc2cccc(Cl)c2n1` (configuration not stated) is -5.5%; for `Fc1ccc(C2(c3noc(CCN4CCCCO4)n3)CCOC2)cc1` (configuration not stated) it is -11.7%; for `O=C1NCC(c2ccc(F)cc2)Cc2[nH]c(CCN3CCCC3)nc21` (configuration not stated) it is -20.9%.
Regarding `COCCN(Cc1nccs1)C(=O)c1cc(-c2ccc(C)o2)n[nH]1`, the cytotoxicity at 70.5 h was -11.2%.
The figure for `Cc1cc(NCc2ccc(CO)cc2)n2nc(C)cc2n1` is -0.853%.
The figure for `CCCc1cncnc1N1CCC(NCc2cc3ccccc3[nH]2)CC1` is 8.09%; for `Cc1cc(NC(C)c2csc(C)n2)n2nc(C)c(C)c2n1` (configuration not stated) it is 5.97%; for `CN(CC1(CO)CCCC1)[C@@H]1c2ccccc2C2(CCNCC2)[C@H]1O` it is -3.86%.
Under `CC(=O)c1c(C)nn(CC(=O)N2Cc3cnc(C(C)(C)C)nc3C2)c1C` stands -5.26%.
As for `COCCOCC(=O)N1CCC(O)(c2ccc3nc(C)ccc3c2)CC1`, the cytotoxicity at 70.5 h was -5.95%.
Consider `CCCc1cc(C(=O)N(C)Cc2cnn(-c3cccc(OC)c3)c2)[nH]n1`, for which the cytotoxicity at 70.5 h is -6.08%.
For the compound `CN(Cc1cc(C2CC2)on1)C(=O)CN1C(=O)OC(C)(C)C1=O`, the cytotoxicity at 70.5 h stood at 0.377%.
Under `OC[C@H]1CN(Cc2c(Cl)cccc2Cl)C[C@H]1CN1CCCCC1` stands 7.58%.
The figure for `Fc1ccccc1CN1CCCC(NC2CCOCC2)C1` (configuration not stated) is -9.48%; for `CCc1nc(C)sc1CN1C[C@@H](C)[C@@](C)(O)C1` it is -11.2%; for `COc1ccccc1-n1cc(C(=O)NCCCn2nc(C)nc2C)cn1` it is -9.68%.
The figure for `COCCN1CCCC2(CCN(c3ncc(Cl)cc3Cl)C2)C1=O` (configuration not stated) is -11%; for `Cc1cc(C(F)(F)F)nc(CCNc2nc(C)nc3c2cnn3C)n1` it is -4.44%; for `Cc1nccn1C1(C(=O)O)CCN(Cc2ccc3nsnc3c2)CC1` it is -7%.
On to `COc1ccc(C(C(=O)O)N2CCC(O)(c3cccnc3)CC2)cc1Cl` (configuration not stated), for which the cytotoxicity at 70.5 h is -9.89%.
`COCCN1CC(C(=O)N(C)Cc2csc(C)n2)CC1=O` (configuration not stated): the cytotoxicity at 70.5 h was 9.18%.
The figure for `CC1=CCN(C(=O)Nc2ccccc2N2CCOC2=O)CC1` is 0.848%; for `CCc1ncc(C(=O)NCCN(C)S(C)(=O)=O)cn1` it is 17.2%.
Under `CC(C)N(C)CC(=O)N1CCCC(c2ccc(C(=O)O)cc2)C1` (configuration not stated) stands -5.3%; under `COc1nc2c(cc1C(=O)N1C[C@H](N)C[C@H]1C(=O)NC(C)C)CCC2`, -4.1%.
The figure for `O=C(c1ccc(F)c(Cl)c1)N1C[C@@H]2CC[C@H](C1)N(Cc1ccccc1)C2` is -5.41%; for `CN(CCO)Cc1nnc(C2CCN(C(=O)C(C)(C)C)CC2)n1C` it is -4.92%; for `COc1cccc(N2CCN(C(=O)C(O)c3cccc(Cl)c3)CC2=O)c1` (configuration not stated) it is 6.54%.
`Cn1ncc2c(N3CCN(C(N)=O)CC3)nc(C3CCCC3)nc21`: the cytotoxicity at 70.5 h was found to be 16.3%.
Under `COc1ccc(C2CC(=O)Nc3c2nc2n3CCCC2)cc1OC` (configuration not stated) stands 8.63%; under `CSc1cccc(CN(C)C(=O)C2CC(=O)N(CCN(C)C)C2)c1` (configuration not stated), 5.8%; under `CCCN(C)C(=O)c1ccc2c(c1)[nH]c(=O)n2CCOCC`, 13.7%.
Under `CSCC[C@H](N)C(=O)NCc1cc2n(n1)CCCN(C(=O)C1CCC1)C2` stands -4.43%.
The figure for `CC(C)(O)C1CCN(C(=O)Nc2nc(-c3ccccc3)ns2)CC1` is -4.79%; for `CC(=O)N1CCCn2nc(CNS(=O)(=O)N3CCCCCC3)cc2C1` it is -10.6%; for `Fc1ccccc1-c1noc2c1CN(CC1CC1)CC2` it is -3.89%.
On to `COc1ccc(C(C(=O)O)N2CCCN(C3CCCC3)CC2)cc1OC` (configuration not stated), for which the cytotoxicity at 70.5 h is 18.5%.
Regarding `O=C(c1ccccn1)N1CCCC(c2nccn2Cc2ccncc2)C1` (configuration not stated), the cytotoxicity at 70.5 h is -4.69%.
The figure for `O=C(CCc1cc2n(n1)CCCN(C(=O)c1cccnc1)C2)NC1CC1` is -2.07%; for `CCn1ccnc1CN1CCC(CNC(=O)c2ccc(C)nc2)C1` (configuration not stated) it is -9.04%; for `O=C(c1cc(=O)[nH]c(=O)[nH]1)N1CCCCC1c1ccc(F)cc1` (configuration not stated) it is -6.94%.
The figure for `COc1ccccc1OCc1cc(C(=O)N2CC(O)C2)n[nH]1` is -4.48%.
Under `CNc1nc2c(c(C(=O)N3CCCC3)n1)CN(Cc1nccn1C)CC2` stands -10.9%.
Regarding `CSCC(=O)N1C[C@H]2CC[C@@H]1CN(Cc1ccccc1)C2`, the cytotoxicity at 70.5 h was -3.17%.
On to `COCC1CCN(C(=O)c2cccc(S(=O)(=O)NCC3(C)COC3)c2)C1` (configuration not stated), for which the cytotoxicity at 70.5 h was -3.93%.
On to `CC(C)NS(=O)(=O)c1cc(C(=O)O)cc(-c2ccccc2CN(C)C)c1`, for which the cytotoxicity at 70.5 h is -1.54%.
Consider `CC(C)c1ncc(S(C)(=O)=O)c(C2CCCNC2)n1` (configuration not stated), for which the cytotoxicity at 70.5 h is -7.47%.
As to `Clc1ccccc1C1(c2ccnc(-c3ncccn3)n2)CCNCC1`, the cytotoxicity at 70.5 h was -12.3%.
Consider `CC(C(=O)N1CCCC1)N1CCC(c2nccn2Cc2cscn2)CC1` (configuration not stated), for which the cytotoxicity at 70.5 h is -9.41%.
Regarding `COC(=O)c1cc(OCC2CCC2)cc(C(=O)N[C@H]2CC[C@H](O)CC2)c1`, the cytotoxicity at 70.5 h came out at 15.3%.
`CCc1ncc2c(n1)CN(C(=O)COC)C2`: the cytotoxicity at 70.5 h was -4.18%.
The figure for `COc1cccc(CCC2CCCN(C(=O)c3n[nH]c4c3CCC4)C2)c1` (configuration not stated) is 0.453%.
In the case of `CC(CN1CCCC1)C(=O)N1CCC(c2nccn2CC2CC2)CC1` (configuration not stated), the cytotoxicity at 70.5 h came out at 12.9%.
Regarding `Cc1ccsc1[C@@H]1CCN(C(=O)CCC(=O)N2CCCCCC2)C[C@H]1O`, the cytotoxicity at 70.5 h worked out at 0.789%.
In the case of `CC(C)n1ccnc1C1CCN(C(=O)c2ccccc2)CC1`, the cytotoxicity at 70.5 h turned out to be 20.7%.
